Results from PMC12303080, “Diverse actions of 15 structurally unrelated mitochondrial uncouplers in cells and mice” (Molecular Metabolism, 2025).
Like-named read-outs stand apart in the source and are kept apart here.

Columns and labels:
CHO–K1 cells [1] = assay: Seahorse XF-96 OCR dose response of 15 uncouplers (Figure 2); format: cell-based, Cricetulus griseus; conditions: CHO–K1; for MaxOCR: 0.32–200 μM, first 24 min post injection; for EC50: mean OCR (% basal) over first 24 min post injection, ± standard error, four-parameter fit, read-out: EC50 (increase of OCR); for MaxOCR lower than that seen with BAM15: Figure 2; for Concentration range with sustained enhanced OCR (OCR ≥ 150% basal): tested 0.32–200 μM
Procedure: (§1) Stock solutions of the uncouplers and/or Rotenone/Antimycin A were diluted in Seahorse media to give the final concentration indicated in Figure 1, Figure 2, Figure 3 with 0.4% (v/v) DMSO in wells.

CHO–K1 cells [2] = assay: OCR in the absence or presence of oligomycin (Supplementary Fig. 6); format: cell-based, Cricetulus griseus; conditions: 1 μM oligomycin; for Effect of oligomycin on uncoupler-stimulated OCR: uncoupler at lowest concentration yielding MaxOCR
Procedure: ATP synthase is the major conduit through which protons re-enter the mitochondrial matrix. Thus, we sought to investigate whether the selected uncouplers could stimulate oxygen consumption in the presence of the ATP synthase inhibitor oligomycin.
Supplementary Figure 6. […] At ~24 minutes, 1 μM of oligomycin or vehicle was injected, followed by the injection of the indicated uncoupler or vehicle at ~44 minutes, and 0.5 μM Rotenone / Antimycin A at ~88 minutes.

HeLa cells = conditions: 0.5–50 μM
Procedure: as §1
(§2) The dashed line indicates basal respiration, defined as the mean OCR over the first 24 minutes of the assay. Error bars show SEM, n = 3 per condition from three separate experiments.

CHO–K1 cells [3] = conditions: 0.5–50 μM, BAM15 at 5 μM, FCCP at 1 μM
Procedure: as §1

HEK-293T cells = conditions: HEK293T; 0.5–50 μM
Procedure: as §1, §2

RAW 264.7 cells = conditions: 0.5–50 μM
Procedure: as §1, §2

db/db mice = assay: Four-week treatment by admixture in chow, metabolic phenotyping; conditions: 4 weeks; for Body weight / weight gain vs db/db controls: 0.15% BAM15, 0.02% OPC-163493, 0.015% and 0.03% ES9, NTZ and NEN both doses; for Body weight, food intake, or metabolic tissue weights vs control: 0.25% NEN, 0.2% NTZ, 0.01% and 0.02% OPC-163493; for Blood glucose, HbA1c, glucose tolerance vs control / Overall metabolic phenotype vs db/db control (Figure 8, words): NEN both doses; for Blood glucose, HbA1c, glucose tolerance vs control: 0.01% OPC, 0.015% ES9, 0.2% NTZ; for Overall metabolic phenotype vs db/db control (Figure 8, words): OPC-163493 both doses, NTZ 0.2%; for Liver mass vs db/db control: both doses of BAM15, low dose NEN; for Daily food intake: both doses of BAM15, low dose of NEN, high dose of NTZ
Procedure: Body weight and glucose tolerance of male db/+ and db/db mice was assessed at 8–9 weeks of age to obtain baseline measurements. Db/+ were used as lean metabolically healthy controls and given ad libitum access to chow diet. Db/db mice were stratified into 12 groups using R (V4.4.0).
Mice were on treatment for a period of four weeks, during which body weight and food intake were measured daily. […] To counter this, food traps were placed beneath hoppers and leftover food in both the traps and hoppers was weighed daily. HbA1c was measured weekly. At the end of the treatment period, a glucose tolerance test was conducted, with fed and fasted bloods collected. At termination, blood was collected via cardiac puncture under isoflurane anaesthesia. Mice were euthanised by cervical dislocation and harvested tissues were flash-frozen in liquid nitrogen and stored at −80 °C.
Mice were fasted for 6 h and then received intraperitoneal injections of 20% (w/v) dextrose at a dose of 1 g/kg lean body mass. Blood glucose (BG) was measured at the time of fasting (random-fed BG) and then again prior to the commencement of the GTT following the 6-hour daytime fast (fasted BG). […] The rate of glucose clearance was measured using the trapezoidal method for calculation of area under the curve.
HbA1c was measured once weekly using an A1cNow + Portable HbA1c Test Kit. […] HbA1c was measured in the random-fed state.
A glucose tolerance test was conducted at the end of the treatment period, with random fed and 6-hour fasted bloods collected. Blood was collected in heparin tubes and kept on ice prior to centrifugation at 2000×g for 10 min at 4 °C to extract plasma. Plasma insulin concentration was determined using the Crystal Chem Ultra-Sensitive Mouse Insulin ELISA kit, according to manufacturers' instructions for the high range (1–64 ng/mL) assay.

rats [4] = assay: NTZ toxicology study in rats (literature); format: in vivo; conditions: worked out from rat dose
SARS-CoV-2 = tested on: SARS-CoV-2; parameters: method as in PMID 35237748; conditions: two 300 mg extended release tablets; placebo […]; cited from earlier work
[5] = tested on: CDAA/c mouse model of NASH; parameters: method as in earlier work; conditions: cited from earlier work
rats [6] = tested on: rats; parameters: method as in PMID 3889119; conditions: cited from earlier work
[7] = Drug exposure / pharmacokinetics after oral gavage; conditions: male, C57BL/6J, mouse, plasma, 10 mg/kg
Procedure: Standards were prepared by spiking known concentrations (0.1, 1, 10, 100 and 1000 ng) of the uncoupler into whole blood prior to extraction. Plasma was obtained by centrifugation at 2000×g for 10 min at 4 °C. Seven microlitres (7 μL) of plasma was precipitated in 100 μL of 90% (v/v) acetonitrile and 10% (v/v) methanol. The resulting solution was vortexed for 5 s and then centrifuged at 21,130×g for 10 min at 4 °C. The supernatant was collected in auto-sampler vials for mass spectrometry.
Plasma concentration of mitochondrial uncouplers at indicated timepoints was determined by LC-MS/MS. Error bars show SEM, n = 3 per mitochondrial uncoupler.

[8] = tested on: Zucker diabetic fatty rats, Akita mice, and Otsuka Long-Evans Tokushima Fatty rats; parameters: method as in PMID 31092829; conditions: decreased HbA1c and lowered fasting blood glucose; cited from earlier work
[9] = Terminal plasma drug concentration by LC-MS/MS; format: in vivo; conditions: db/db mice, study endpoint; TIZ row: mice fed 0.2% NTZ
Procedure: LC-MS/MS was performed using a Shimadzu Prominence LCMS-8030 as previously described.
Figure 7 Plasma drug concentration and markers of tissue damage in db/db mice at study endpoint. Plasma was collected via cardiac puncture at time of euthanasia. A–E) Terminal plasma drug concentration was measured by LC-MS/MS. F–I) Terminal plasma concentration of liver function indicators (ALT, AST and GLDH) and kidney function indicator (urea). Graphs show mean ± SEM, n = 6–9 per group for plasma drug concentration measurement. Due to the limited volume of samples, not all liver and kidney function tests could be performed for all mice.

isolated rat hepatocytes = tested on: isolated rat hepatocytes; parameters: method as in PMID 12150871, PMID 31297293; conditions: read-out: EC50, inhibiting oxygen consumption; cited from earlier work
[10] = in vivo; cited from earlier work
[11] = Cricetulus griseus, CHO-K1, 0.4 h

CCCCCCCCCCCC[P+](c1ccccc1)(c1ccccc1)c1ccccc1 [C12TPP, Dodecyl-triphenylphosphonium]
Concentration giving max efficacy / MaxOCR (CHO–K1 cells [1]): 3.16 µM | MaxOCR (CHO–K1 cells [1]): ~178 % of basal | OCR at higher doses (CHO–K1 cells [1]; doses above 3.16 μM): ~18 % of baseline | EC50 (CHO–K1 cells [1]; Cricetulus griseus, 0.4 h): 1020 ± 980 nM | Higher OCR in the presence of oligomycin (CHO–K1 cells [2]; initially): ~60% | Effect of oligomycin on uncoupler-stimulated OCR (CHO–K1 cells [2]): largely unaffected by the presence of oligomycin

Cc1c2ccncc2c(C)c2c1[nH]c1ccccc12 [ELL, Ellipticine]
Concentration at which OCR increased above basal levels (CHO–K1 cells [1]): > 100 µM | MaxOCR (CHO–K1 cells [1]): ~122 % of basal

N#CC(C#N)=NNc1ccc(OC(F)(F)F)cc1 [FCCP, Carbonyl cyanide p-trifluoromethoxyphenylhydrazone]
MaxOCR (CHO–K1 cells [1]): 260 % of basal | EC50 (CHO–K1 cells [1]; [11]): 310 nM | Stimulation of OCR (HeLa cells): failed to stimulate OCR above basal levels | Effect of oligomycin on uncoupler-stimulated OCR (CHO–K1 cells [2]): largely unaffected by the presence of oligomycin | MaxOCR (CHO–K1 cells [3]): ~260 % basal | Stimulation of OCR (HEK-293T cells): failed to stimulate OCR above basal levels | Stimulation of OCR (RAW 264.7 cells): failed to stimulate OCR above basal levels

O=C(Nc1ccc([N+](=O)[O-])cc1Cl)c1cc(Cl)ccc1O [NEN, Niclosamide ethanolamine]
MaxOCR lower than that seen with BAM15 (CHO–K1 cells [1]): ~25% | Concentration range with sustained enhanced OCR (OCR ≥ 150% basal) (CHO–K1 cells [1]): 0.32 µM | EC50 (CHO–K1 cells [1]; [11]): 90 nM | Body weight / weight gain vs db/db controls (db/db mice): little impact on body weight | Body weight, food intake, or metabolic tissue weights vs control (db/db mice): not significantly different | Blood glucose, HbA1c, glucose tolerance vs control (db/db mice): did not have significantly lower random-fed or 6-hour fasted blood glucose | Overall metabolic phenotype vs db/db control (Figure 8, words) (db/db mice): no significant changes compared to the db/db control except lower liver weight | Liver mass vs db/db control (db/db mice; high dose NTZ): statistically decreased liver mass | Daily food intake (db/db mice): restored normal food intake | Effect of oligomycin on uncoupler-stimulated OCR (CHO–K1 cells [2]): largely unaffected by the presence of oligomycin

CC(=O)Oc1ccccc1C(=O)Nc1ncc([N+](=O)[O-])s1 [NTZ, Nitazoxanide]
EC50 (CHO–K1 cells [1]; [11]): 2320 ± 460 nM | Body weight / weight gain vs db/db controls (db/db mice): little impact on body weight | Body weight, food intake, or metabolic tissue weights vs control (db/db mice): not significantly different | Gonadal fat less than control group (db/db mice; 0.4% in chow): 26% | Post-treatment GTT AUC lower than control group (db/db mice; 0.4% in chow): ~29% | Blood glucose, HbA1c, glucose tolerance vs control (db/db mice): did not have significantly lower random-fed or 6-hour fasted blood glucose | Overall metabolic phenotype vs db/db control (Figure 8, words) (db/db mice): no statistically significant phenotype | Liver mass vs db/db control (db/db mice; high dose NTZ): statistically decreased liver mass | Daily food intake (db/db mice): restored normal food intake | HbA1c (db/db mice; both doses of BAM15, printed 0.3% ES9, 0.4% NTZ): lowered HbA1c levels | Fasting and random fed blood glucose (db/db mice; either dose of BAM15, high dose ES9, high dose NTZ): partial efficacy | Increase of liver cholesterol concentration vs db/db control (db/db mice; high dose NTZ (0.4%)): ~1.7 fold | Increase of liver cholesterol concentration vs db/db control (db/db mice; low dose NTZ (0.2%)): ~1.5 fold | Mouse equivalent dose of the rat adverse effect dose (rats [4]): ~900 mg/kg/day | Patients progressed to severe disease (SARS-CoV-2): 0.5% | Decrease in liver fibrosis ([5]; 100 mg/kg/day): 32% | Decrease in liver fibrosis ([5]; co-administered with Elafibranor): 60% | Doses with increased salivation and lethargy, increased liver and spleen size (rats [6]): ≥ 450 mg/kg/day

Cc1sc(-c2ccc(C(F)(F)F)cc2)nc1-c1nn[nH]c1C#N [OPC-163493, 4-(5-methyl-2-(4-(trifluoromethyl)phenyl)thiazol-4-yl)-1H-1,2,3-triazole-5-carbonitrile]
Concentration giving max efficacy / MaxOCR (CHO–K1 cells [1]): 10 µM | MaxOCR lower than that seen with BAM15 (CHO–K1 cells [1]): ~22% | EC50 (CHO–K1 cells [1]): 1000 nM | EC50 (CHO–K1 cells [1]; [11]): 1010 ± 1200 nM | Cmax [7]: 30.9 µM | Body weight / weight gain vs db/db controls (db/db mice): non-significant trend for lower body weight | Body weight, food intake, or metabolic tissue weights vs control (db/db mice): not significantly different | Blood glucose, HbA1c, glucose tolerance vs control (db/db mice): did not have significantly lower random-fed or 6-hour fasted blood glucose | Overall metabolic phenotype vs db/db control (Figure 8, words) (db/db mice): No statistically significant changes | Effect of oligomycin on uncoupler-stimulated OCR (CHO–K1 cells [2]): largely unaffected by the presence of oligomycin | Doses with significant anti-diabetic effects (as low as) [8]: ≥ 2 mg/kg/day

COc1cc(C(=O)OCC=C(C)C)nc2c(OCC=C(C)C)cccc12 [Ppc-1, Polysphondylium pseudo-candidum-1]
OCR at 31.6 μM (CHO–K1 cells [1]; 31.6 μM): ~130 % basal | Concentration inducing decline in OCR to sub-basal levels (CHO–K1 cells [1]; after ∼40 min of treatment): over 31.6 μM | EC50 (CHO–K1 cells [1]; [11]): 13500 ± 7140 nM

O=C(Nc1cc(Cl)cc(Cl)c1)Nc1cc(Cl)cc(Cl)c1 [SR4, 1,3-bis(3,5-dichlorophenyl)urea]
Concentration at which OCR increased above basal levels (CHO–K1 cells [1]): 200 µM | MaxOCR (CHO–K1 cells [1]): ~117 % of basal

CNC(=O)c1cc(Oc2ccc(NC(=O)Nc3ccc(Cl)c(C(F)(F)F)c3)cc2)ccn1 [Sorafenib, 4-[4-({[4-chloro-3 (trifluoromethyl)phenyl]carbamoyl}amino)phenoxy]-N-methylpyridine-2-carboxamide]
Uncoupling activity (CHO–K1 cells [1]; tested concentration range, 120-minute assay): did not have any uncoupling activity

O=C(Nc1ncc([N+](=O)[O-])s1)c1ccccc1O [TIZ, tizoxanide]
Terminal plasma drug concentration vs in vitro uncoupling range [9]: lower than the concentration at which oxygen consumption rate was enhanced in vitro

FC(F)(F)c1nc2c(Cl)c(Cl)c(Cl)c(Cl)c2[nH]1 [TTFB, 4,5,6,7-Tetrachloro-2-trifluoromethylbenzimidazole]
MaxOCR (CHO–K1 cells [1]): 280 % of basal | Concentration inducing decline in OCR to sub-basal levels (CHO–K1 cells [1]; first 24 min): 200 µM | EC50 (CHO–K1 cells [1]; [11]): 520 nM | Effect of oligomycin on uncoupler-stimulated OCR (CHO–K1 cells [2]): largely unaffected by the presence of oligomycin

CC(C)(C)c1cc(C=C(C#N)C#N)cc(C(C)(C)C)c1O [TyrA9, Tyrphostin A9]
MaxOCR lower than that seen with BAM15 (CHO–K1 cells [1]): ~140% | Concentration range with sustained enhanced OCR (OCR ≥ 150% basal) (CHO–K1 cells [1]): ≤ 100 µM | EC50 (CHO–K1 cells [1]; [11]): 10 nM | Effect of oligomycin on uncoupler-stimulated OCR (CHO–K1 cells [2]): largely unaffected by the presence of oligomycin | EC50 (isolated rat hepatocytes): 78000 nM

liraglutide
Loss of lean mass [10]: up to 60 % of total weight lost

semaglutide
Loss of lean mass [10]: up to 40 % of total weight lost
